Assay: cn = amount concentration of the nth substance listed, in mol/dm3
Conditions: 298.15 K, 101.3 kPa, Liquid, Taylor dispersion method

SMILES: NCC(=O)O [2-aminoacetic acid] + O
- binary diffusion coefficient (c1 = 0.005): 1.06e-09 m2/s
- binary diffusion coefficient (c1 = 0.1): 1.04e-09 m2/s
